Source: ChEMBL document CHEMBL5120811, “Nocathiacin, Thiazomycin, and Polar Analogs Are Highly Effective Agents against Toxigenic Clostridioides difficile” (J Nat Prod, 2022)
Values after ≈ are worked out from the molar mass of the structure shown.

Columns and labels:
Clostridioides difficile [1] = assay: Antibacterial activity against Clostridioides difficile assessed as inhibition of bacterial growth by CLSI based agar dilution susceptibility analysis; format: functional
[2] = Selectivity ratio of MIC for Bacteroides fragilis ATCC 25285 to MIC for Clostridioides difficile; format: functional
Bacteroides fragilis = assay: Antibacterial activity against Bacteroides fragilis ATCC 25285 assessed as inhibition of bacterial growth by CLSI based agar dilution susceptibility analysis; format: functional
Clostridioides difficile [3] = assay: Antibacterial activity against Clostridioides difficile SM8-6865 in CDAD golden hamster model assessed as protection from lethal infection at 0.39 o 1.56 mg/kg, po administered twice daily for 4 days; format: functional; conditions: time 4 day
[4] = Drug concentration in golden hamster caecum at 6.25 mg/kg, po measured after 24 hrs by LC-MS/MS analysis; format: ADME, organism-based, Mesocricetus auratus; conditions: read-out: Ct
Clostridioides difficile [5] = assay: Antibacterial activity against Clostridioides difficile SM8-6865 in CDAD golden hamster model assessed as protection from lethal infection at 6.25 mg/kg, po administered twice daily for 4 days; format: functional; conditions: time 4 day
Clostridioides difficile [6] = assay: Antibacterial activity against Clostridioides difficile SM8-6865 in CDAD golden hamster model assessed as log reduction in cecum bacterial content at 6.25 mg/kg, po administered twice daily for 4 days; format: functional; conditions: time 4 day
[7] = Drug concentration in golden hamster caecum at 6.25 mg/kg, po measured after 1 hr by LC-MS/MS analysis; format: ADME, organism-based, Mesocricetus auratus; conditions: read-out: Ct
Clostridioides difficile [8] = assay: Antibacterial activity against Clostridioides difficile SM8-6865 in CDAD golden hamster model assessed as protection from lethal infection at 1.56 mg/kg, po administered twice daily for 4 days; format: functional; conditions: time 4 day
Clostridioides difficile [9] = assay: Antibacterial activity against Clostridioides difficile assessed as inhibition of bacterial growth incubated for 18 to 24 hrs by broth microdilution method; format: functional; conditions: time 18-24 hrs
Clostridioides difficile [10] = assay: Antibacterial activity against Clostridioides difficile SM8-6865 in CDAD golden hamster model assessed as log reduction in cecum bacterial content at 1.56 mg/kg, po administered twice daily for 4 days; format: functional; conditions: time 4 day
[11] = Toxicity in Clostridioides difficile SM8-6865 infected golden hamster model assessed as survival at 1.56 mg/kg, po administered once daily for 4 days; format: organism-based, Mesocricetus auratus; conditions: in vivo, 96 h, time 4 day
Clostridioides difficile [12] = assay: Antibacterial activity against Clostridioides difficile SM8-6865 in CDAD golden hamster model assessed as log reduction in cecum bacterial content at 1.56 mg/kg, po administered once daily for 4 days; format: functional; conditions: time 4 day
Clostridioides difficile [13] = assay: Antibacterial activity against Clostridioides difficile SM8-6865 in CDAD golden hamster model assessed as protection from lethal infection at 1.56 mg/kg, po administered once daily for 4 days; format: functional; conditions: time 4 day

With CO/C(C)=C1/NC(=O)[C@H]([C@@H](C)O)NC(=O)c2csc(n2)-c2cc(OC)c(-c3nc(C(=O)NCCCN4CCOCC4)cs3)nc2-c2csc(n2)[C@@H]2COC(=O)c3c4c5c(cccc5n3O)COC(=O)[C@@H](O[C@H]3C[C@](C)(O)[C@H](N(C)C)[C@H](C)O3)[C@@H](OC4)[C@H](NC(=O)c3csc1n3)c1nc(cs1)C(=O)N2 the MIC50 (Clostridioides difficile [1]) was ≤ 0.015 µg/mL, the Selectivity ratio [2] was 100 and the MIC (Bacteroides fragilis) was 4 µg/mL (≈ 2.65 µM).

In the case of CO/C(C)=C1/NC(=O)[C@H]([C@@H](C)O)NC(=O)c2csc(n2)-c2cc(O)c(-c3nc(C(=O)NCCCN4CCOCC4)cs3)nc2-c2csc(n2)[C@@H]2COC(=O)c3c4c5c(cccc5n3O)COC(=O)[C@@H](O[C@H]3C[C@](C)(O)[C@H](N(C)C)[C@H](C)O3)[C@@H](OC4)[C@H](NC(=O)c3csc1n3)c1nc(cs1)C(=O)N2, the MIC50 (Clostridioides difficile [1]) is reported as 0.03 µg/mL (≈ 0.0201 µM), the Activity (Clostridioides difficile [3]) is reported as 16% and the Selectivity ratio [2] is reported as 100. For the same molecule, the concentration at 24 h [4] was 80 nM, the MIC (Bacteroides fragilis) was 4 µg/mL (≈ 2.67 µM) and the Activity (Clostridioides difficile [5]) was 100%. The Activity (Clostridioides difficile [6]) was >5 log10CFU/g and the concentration at 1 h [7] was 6560 nM.

With CCc1c(Cl)c(O)c(Cl)c(O)c1C(=O)O[C@H]1[C@H](O)[C@H](OC)[C@H](OC/C2=C\C=C\C[C@H](O)/C(C)=C/[C@H](CC)[C@@H](O[C@@H]3OC(C)(C)[C@@H](OC(=O)C(C)C)[C@H](O)[C@@H]3O)/C(C)=C/C(C)=C/C[C@@H]([C@@H](C)O)OC2=O)O[C@@H]1C [FIDAXOMICIN] the MIC50 (Clostridioides difficile [1]) was 0.5 µg/mL (≈ 0.473 µM) and the MIC (Bacteroides fragilis) was > 16 µg/mL.

For Cc1ncc([N+](=O)[O-])n1CCO [METRONIDAZOLE], the MIC50 (Clostridioides difficile [1]) was ≤ 0.015 µg/mL and the MIC (Bacteroides fragilis) was > 16 µg/mL.

With C=C(NC(=O)c1csc(-c2nc3c(cc2O)-c2nc(cs2)C(=O)N[C@@H]([C@@H](C)O)C(=O)N/C(=C(\C)OC)c2nc(cs2)C(=O)N[C@@H]2c4nc(cs4)C(=O)N[C@@H](COC(=O)c4c5c6c(cccc6n4O)COC(=O)[C@@H](O[C@H]4C[C@](C)(O)[C@H](N(C)C)[C@H](C)O4)[C@H]2OC5)c2nc-3cs2)n1)C(N)=O [MJ347-81F4 A] the MIC50 (Clostridioides difficile [1]) was 0.03 µg/mL (≈ 0.0209 µM), the Activity (Clostridioides difficile [8]) was 66% and the Selectivity ratio [2] was 100. For the same molecule, the concentration at 24 h [4] was 190 nM, the MIC (Clostridioides difficile [9]) was 0.06 µg/mL (≈ 0.0417 µM) and the MIC (Bacteroides fragilis) was 4 µg/mL (≈ 2.78 µM). The Activity (Clostridioides difficile [5]) was 100%, the Activity (Clostridioides difficile [10]) was 4 log10CFU/g and the Activity (Clostridioides difficile [6]) was >5 log10CFU/g. The concentration at 1 h [7] was 5400 nM.

Work on C=C(NC(=O)c1csc(-c2nc3c(cc2O)-c2nc(cs2)C(=O)N[C@@H]([C@@H](C)O)C(=O)N/C(=C(\C)OC)c2nc(cs2)C(=O)N[C@@H]2c4nc(cs4)C(=O)N[C@@H](COC(=O)c4c5c6c(cccc6n4O)COC(=O)[C@@H](O[C@H]4C[C@]6(C)OCN(C)[C@@H]6[C@H](C)O4)[C@H]2OC5)c2nc-3cs2)n1)C(N)=O [THIAZOMYCIN] yielded an MIC50 (Clostridioides difficile [1]) of 0.06 µg/mL (≈ 0.0418 µM), a Selectivity ratio [2] of 100 and an MIC (Bacteroides fragilis) of 8 µg/mL (≈ 5.57 µM).

In the case of CN[C@H](CC(C)C)C(=O)N[C@H]1C(=O)N[C@@H](CC(N)=O)C(=O)N[C@H]2C(=O)N[C@H]3C(=O)N[C@H](C(=O)N[C@H](C(=O)O)c4cc(O)cc(O)c4-c4cc3ccc4O)[C@H](O)c3ccc(c(Cl)c3)Oc3cc2cc(c3O[C@@H]2O[C@H](CO)[C@@H](O)[C@H](O)[C@H]2O[C@H]2C[C@](C)(N)[C@H](O)[C@H](C)O2)Oc2ccc(cc2Cl)[C@H]1O [VANCOMYCIN], the MIC50 (Clostridioides difficile [1]) is reported as 0.25 µg/mL (≈ 0.173 µM), the Activity [11] is reported as “Non-Toxic” and the Activity (Clostridioides difficile [12]) is reported as >5 log10CFU/g. It also gave an MIC (Bacteroides fragilis) of 0.5 µg/mL (≈ 0.345 µM) and an Activity (Clostridioides difficile [13]) of 100%.
